US7919508B2, “3-piperidinylisochroman-5-ols as dopamine agonists” (Aventis Pharmaceuticals Inc., priority 2004, dated 2011)
Structures can show the parent of a compound that is named as a salt. Where two headings read alike, the source gives them in different places.

Experiments:
D1 receptor = biological target: T1, D1 receptor (Homo sapiens, UniProt P21728); assay: D1 Activation Adenylyl Cyclase Assay (cAMP FlashPlate, D1 transfected CHO cell line); assay type: cell-based
T1 construct: expressed in transfected cells; host or cells: D1 transfected CHO cell line
T1 sequence (P21728 whole entry): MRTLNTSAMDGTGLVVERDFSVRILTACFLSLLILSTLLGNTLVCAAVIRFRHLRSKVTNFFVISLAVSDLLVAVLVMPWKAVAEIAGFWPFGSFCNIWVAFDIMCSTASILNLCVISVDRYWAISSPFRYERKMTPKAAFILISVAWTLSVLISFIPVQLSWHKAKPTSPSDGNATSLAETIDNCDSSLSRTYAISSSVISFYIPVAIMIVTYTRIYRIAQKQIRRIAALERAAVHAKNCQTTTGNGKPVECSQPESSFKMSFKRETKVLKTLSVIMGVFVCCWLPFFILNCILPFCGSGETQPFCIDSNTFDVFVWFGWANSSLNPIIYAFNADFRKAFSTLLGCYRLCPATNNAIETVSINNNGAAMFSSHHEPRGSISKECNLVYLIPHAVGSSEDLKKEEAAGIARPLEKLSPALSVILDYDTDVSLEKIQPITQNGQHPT
Method in brief: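 D1-transfected CHO cells (50,000/well) were exposed to compound 1/10 serial dilutions for 8 min at RT; cAMP measured by competitive 125I-cAMP FlashPlate against a standard curve. Response normalised between basal and saturating D1 agonist; EC50 at half-maximal stimulation, plateau reported as % maximal dopamine stimulation.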

[1] = biological target: T2, human dopamine D1 receptor (Homo sapiens, UniProt P21728); assay: [3H]-SCH-23390 binding to cloned human dopamine D1 receptors (CHO cell membranes)
T2 construct: A 1.4 Kb Hind III to Xho I fragment was subcloned into the vector pMMLV; expressed in transfected cells; host or cells: CHO cells, clone CHO-D1M#9 (plasmid pHD1MMLV), membranes
T2 sequence (P21728 whole entry, the tested form may be a part): as the sequence (P21728 whole entry) above

[2] = biological target: human dopamine D2Long (D2L) receptors (Homo sapiens, UniProt P14416)
Chain of human dopamine D2Long (D2L) receptors (P14416 whole entry): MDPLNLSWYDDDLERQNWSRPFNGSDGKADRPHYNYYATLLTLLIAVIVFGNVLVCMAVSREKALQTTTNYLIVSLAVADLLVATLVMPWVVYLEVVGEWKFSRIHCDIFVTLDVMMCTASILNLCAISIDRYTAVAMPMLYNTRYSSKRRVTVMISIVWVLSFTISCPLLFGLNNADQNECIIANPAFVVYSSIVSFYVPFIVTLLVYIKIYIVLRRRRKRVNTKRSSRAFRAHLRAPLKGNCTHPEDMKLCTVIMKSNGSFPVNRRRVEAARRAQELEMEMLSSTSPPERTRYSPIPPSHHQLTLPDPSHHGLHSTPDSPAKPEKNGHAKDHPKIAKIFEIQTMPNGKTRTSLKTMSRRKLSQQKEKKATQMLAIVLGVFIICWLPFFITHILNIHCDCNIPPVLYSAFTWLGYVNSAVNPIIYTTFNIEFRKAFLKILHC

[3] = agonist activity at the D1 receptor, adenylate cyclase assay, D1 transfected CHO cell line, read-out: D1 EC50
[4] = competitive binding, [3H]-SCH-23390, cloned human D1 in CHO membranes, read-out: D1 affinity Ki

Structure (SMILES) | EC50 (D1 receptor) [nM] | Ki [1] [nM] | Ki [2] [nM] | EC50 (D1 receptor; [3]) [nM] | Ki [1, 4] [nM]
Cc1ccc2c(c1O)C[C@@H](C1CCN(C(=O)Oc3ccccc3Cl)CC1)O[C@H]2CN [Example 116, 4-((1R,3S)-1-Aminomethyl-5-hydroxy-6-methyl-isochroman-3-yl)-piperidine-1-carboxylic acid 2-chloro-phenyl ester hydrochloride] | 4.6 | 32.6 | ≥ 100000 | – | –
CNC[C@@H]1O[C@H](C2CCN(Cc3ccc(OC)cc3)CC2)Cc2c1ccc(C)c2O [Example 99, (1R,3S)-3-[1-(4-Methoxy-benzyl)-piperidin-4-yl]-6-methyl-1-methylaminomethyl-isochroman-5-ol dihydrochloride] | – | – | 307 | 22 | 53.1
Cc1ccc2c(c1O)C[C@@H](C1CCN(C(C)Cc3ccccc3)CC1)O[C@H]2CN (stereo partly drawn) [Example 30, (1R,3S)-1-Aminomethyl-6-methyl-3-[1-(1-methyl-2-phenyl-ethyl)-piperidin-4-yl]-isochroman-5-ol dihydrobromide] | – | – | ≥ 10000 | 60 | 55.2
CNC[C@@H]1O[C@H](C2CCN(CCc3ccccc3)CC2)Cc2c1ccc(C)c2O [Example 94, (1R,3S)-6-Methyl-1-methylaminomethyl-3-(1-phenethyl-piperidin-4-yl)-isochroman-5-ol dihydrochloride] | – | – | 285 | 35 | 113
Cc1ccc2c(c1O)C[C@@H](C1CCN(C(=O)N3CCCC3)CC1)O[C@H]2CN [Example 135, [4-((1R,3S)-1-Aminomethyl-5-hydroxy-6-methyl-isochroman-3-yl)-piperidin-1-yl]-pyrrolidin-1-yl-methanone hydrochloride] | – | – | ≥ 100000 | 2.8 | 61.5
Cc1ccc2c(c1O)C[C@@H](C1CCN(Cc3ccc(Cl)c(Cl)c3)CC1)O[C@H]2CN [Example 60, (1R,3S)-1-Aminomethyl-3-[1-(3,4-dichloro-benzyl)-piperidin-4-yl]-6-methyl-isochroman-5-ol dihydrochloride] | – | – | 364 | 160 | 11.8
Cc1ccc2c(c1O)C[C@@H](C1CCN(Cc3ccc(Cl)c(C(F)(F)F)c3)CC1)O[C@H]2CN [Example 78, (1R,3S)-1-Aminomethyl-3-[1-(4-chloro-3-trifluoromethyl-benzyl)-piperidin-4-yl]-6-methyl-isochroman-5-ol dihydrochloride] | – | – | 197 | 2 | 14
Cc1ccc2c(c1O)C[C@@H](C1CCN(C(=O)Oc3ccc(Br)cc3)CC1)O[C@H]2CN [Example 117, 4-((1R,3S)-1-Aminomethyl-5-hydroxy-6-methyl-isochroman-3-yl)-piperidine-1-carboxylic acid 4-bromo-phenyl ester hydrochloride] | 4.3 | 59 | 404 | – | –
Cc1ccc2c(c1O)C[C@@H](C1CCN(S(=O)(=O)Cc3ccccc3)CC1)O[C@H]2CN [Example 142, (1R,3S)-1-Aminomethyl-6-methyl-3-(1-phenylmethanesulfonyl-piperidin-4-yl)-isochroman-5-ol hydrochloride] | – | – | ≥ 100000 | 1.9 | 18
CCNC[C@@H]1O[C@H](C2CCN(CC(=O)c3ccccc3)CC2)Cc2c1ccc(C)c2O [Example 179, 2-[4-((1R,3S)-1-Ethylaminomethyl-5-hydroxy-6-methyl-isochroman-3-yl)-piperidin-1-yl]-1-phenyl-ethanone] | – | – | 215 | 810 | 139
Cc1ccc2c(c1O)C[C@@H](C1CCN(CCC(C)NC(=O)c3cc4ccccc4s3)CC1)O[C@H]2CN (stereo partly drawn) [Example 20, Benzo[b]thiophene-2-carboxylic acid {3-[4-((1R,3S)-1-aminomethyl-5-hydroxy-6-methyl-isochroman-3-yl)-piperidin-1-yl]-1-methyl-propyl}-amide dihydrochloride] | – | – | 265 | 61 | 52.4
Cc1ccc2c(c1O)C[C@@H](C1CCN(Cc3ccc(C(C)C)cc3)CC1)O[C@H]2CN [Example 48, (1R 3S)-1-Aminomethyl-3-[1-(4-isopropyl-benzyl)-piperidin-4-yl]-6-methyl-isochroman-5-ol dihydrochloride] | – | – | ≥ 10000 | 26 | 37.4
Cc1ccc2c(c1O)C[C@@H](C1CCN(Cc3cnc4ccccc4c3)CC1)O[C@H]2CN [Example 56, (1R,3S)-1-Aminomethyl-6-methyl-3-(1-quinolin-3-ylmethyl-piperidin-4-yl)-isochroman-5-ol dihydrochloride] | – | – | ≥ 10000 | 12 | 30.5
Cc1ccc2c(c1O)C[C@@H](C1CCN(C(=O)Oc3ccc(Cl)cc3)CC1)O[C@H]2CN [Example 115, 4-((1R,3S)-1-Aminomethyl-5-hydroxy-6-methyl-isochroman-3-yl)-piperidine-1-carboxylic acid 4-chloro-phenyl ester hydrochloride] | 48 | 39 | 506 | – | –
Cc1ccc2c(c1O)C[C@@H](C1CCN(Cc3sc4ccccc4c3C)CC1)O[C@H]2CN [Example 86, (1R,3S)-1-Aminomethyl-6-methyl-3-[1-(3-methyl-benzo[b]thiophen-2-ylmethyl)-piperidin-4-yl]-isochroman-5-ol dihydrochloride] | – | – | 97.6 | 77 | 39.9
Cc1ccc2c(c1O)C[C@@H](C1CCN(C(=O)Nc3ccc(F)cc3)CC1)O[C@H]2CN [Example 128, 4-((1R,3S)-1-Aminomethyl-5-hydroxy-6-methyl-isochroman-3-yl)-piperidine-1-carboxylic acid (4-fluoro-phenyl)-amide hydrochloride] | – | – | ≥ 10000 | 6000 | 106
Cc1ccc2c(c1O)C[C@@H](C1CCN(Cc3cc4ccccc4o3)CC1)O[C@H]2CN [Example 85, (1R,3S)-1-Aminomethyl-3-(1-benzofuran-2-ylmethyl-piperidin-4-yl)-6-methyl-isochroman-5-ol dihydrochloride] | – | – | 389 | 16 | 25.6
Cc1ccc(OC(=O)N2CCC([C@@H]3Cc4c(ccc(C)c4O)[C@H](CN)O3)CC2)cc1 [Example 114, 4-((1R,3S)-1-Aminomethyl-5-hydroxy-6-methyl-isochroman-3-yl)-piperidine-1-carboxylic acid p-tolyl ester hydrochloride] | 0.85 | 64.6 | 511 | – | –
Cc1ccc2c(c1O)C[C@@H](C1CCN(Cc3cn(Cc4ccccc4)c4ccccc34)CC1)O[C@H]2CN [Example 91, (1R,3S)-1-Aminomethyl-3-[1-(1-benzyl-1H-indol-3-ylmethyl)-piperidin-4-yl]-6-methyl-isochroman-5-ol dihydrochloride] | – | – | 43.4 | 12 | 40.7
Cc1ccc2c(c1O)C[C@@H](C1CCN(C(=O)Oc3ccccc3)CC1)O[C@H]2CN [Example 113, 4-((1R,3S)-1-Aminomethyl-5-hydroxy-6-methyl-isochroman-3-yl)-piperidine-1-carboxylic acid phenyl ester hydrochloride] | 4.2 | 30.5 | ≥ 100000 | – | –
Cc1ccc2c(c1O)C[C@@H](C1CCN(CCC(C)NC(=O)c3ccccc3)CC1)O[C@H]2CN (stereo partly drawn) [Example 21, N-{3-[4-((1R,3S)-1-Aminomethyl-5-hydroxy-6-methyl-isochroman-3-yl)-piperidin-1-yl]-1-methyl-propyl}-benzamide dihydrochloride] | – | – | ≥ 100000 | 14 | 120
CNC[C@@H]1O[C@H](C2CCN(Cc3ccc(F)cc3)CC2)Cc2c1ccc(C)c2O [Example 95, 1R,3S)-3-[1-(4-Fluoro-benzyl)-piperidin-4-yl]-6-methyl-1-methylaminomethyl-isochroman-5-ol dihydrochloride] | – | – | 456 | 250 | 121
Cc1ccc2c(c1O)C[C@@H](C1CCN(CC3CCCCC3)CC1)O[C@H]2CN [Example 34, (1R,3S)-1-Aminomethyl-3-(1-cyclohexylmethyl-piperidin-4-yl)-6-methyl-isochroman-5-ol dihydrochloride] | – | – | ≥ 10000 | 66 | 47
Cc1ccc2c(c1O)C[C@@H](C1CCN(Cc3c[nH]c4ccccc34)CC1)O[C@H]2CN [Example 89, (1R,3S)-1-Aminomethyl-3-[1-(1H-indol-3-ylmethyl)-piperidin-4-yl]-6-methyl-isochroman-5-ol dihydrochloride] | – | – | 199 | 8 | 18.9
Cc1ccc2c(c1O)C[C@@H](C1CCN(Cc3csc4ccccc34)CC1)O[C@H]2CN [Example 87, (1R,3S)-1-Aminomethyl-6-methyl-3-(1-benzo[b]thiophen-3-ylmethyl-piperidin-4-yl)-isochroman-5-ol dihydrochloride] | – | – | 23.8 | 27 | 23.9
Cc1ccc2c(c1O)C[C@@H](C1CCN(Cc3ccccc3Cl)CC1)O[C@H]2CN [Example 35, (1R,3S)-1-Aminomethyl-3-[1-(2-chloro-benzyl)-piperidin-4-yl]-6-methyl-isochroman-5-ol dihydrobromide] | – | – | 96 | 44 | 42
